Several values for one entry are separate records, joined by “and”; a condition that tells them apart may be missing. Equal entries are not always repeated. Where two headings read alike, the source gives them in different places.
Assays:
foldon homo-trimer = assay: ITEM-FIVE: collision-induced dissociation of foldon homo-trimer 5+ ions in the gas phase (nanoESI-MS); type: binding, T4 phage; conditions: for k#m0g (apparent kinetic constant of trimer dissociation) / TambΔS#m0g / ΔG#m0g (pseudo thermodynamic activation free energy of trimer dissociation) / ΔH#m0g (activation enthalpy of trimer dissociation): gas phase, two measurement series averaged; for k#m0g (apparent kinetic constant of trimer dissociation): CID ΔCV 0-50 V, linear extrapolation to ambient temperature (298 K), dimensionless, sprayed from 50 mM ammonium acetate pH 5.5, 0.1 µg/µl; for TambΔS#m0g: Tamb 298 K; for ΔG#m0g (pseudo thermodynamic activation free energy of trimer dissociation) / ΔH#m0g (activation enthalpy of trimer dissociation): extrapolated to ambient temperature
Excerpt: ITEM-FIVE investigations started with electrospraying foldon-containing solutions and by setting the first mass filter (quadrupole) to selecting only foldon trimer ions for transmission into the instrument’s collision cell.
After mass filtering, this was the only remaining ion signal in the mass spectrum because the energy in the collision cell was too low to initiate complex dissociation. […] At 20 V the trimer ion signals were barely visible (Fig. 2C), leaving mass spectra with dominating ion signals of dimers and monomers. Finally, at 40 V, the only ion signals which remained visible in the mass spectra were those of the monomers (Fig. 2D). Independent measurement series of complex dissociations were recorded twice for each foldon variant (Tables S1–S7). […] Plotting the courses of normalized educt ion intensities as functions of ∆CV provided sigmoidal shaped curves with Boltzmann characteristics for all foldons (Fig. 3).
Approximating the tangent lines at the ∆CV50 values of all the Boltzmann curves (R^2 = 0.999 for all foldons; cf. Table S8) and upon transforming ∆CV values to reaction temperatures (applying formula (5) see Supplement) enabled drawing of Arrhenius plots (Fig. S11, applying formulas (1) and (5)) and Ellingham diagrams (Fig. S12, formulas (3), (4) and (5)). The values were calculated from formulas (2), (5) and (6). […] Likewise, the pseudo thermodynamic activation free energy values, followed in all Ellingham diagrams courses with almost parallel lining up of linear courses of all foldons when plotted against (according to formula (4)).
Mass spectra were acquired on a Synapt G2-S instrument (Waters MS-Technologies, Wilmslow, UK). Instrument calibration was performed with a sodium iodide solution with a concentration of 2 mg/ml, dissolved in isopropanol/water (50:50 v/v).
All mass spectra were acquired in positive ion mode applying a mass window from m/z 400 to m/z 8000. NanoESI measurements were performed with the following instrument settings: capillary voltage: 1.0–1.2 kV, sample cone voltage: 13 V source offset: 12 V, source gas flow: 0.0 ml/min, cone gas flow: 9 l/h, helium cell gas flow: 40 ml/min, IMS gas flow: 20.0 ml/min, trap collision voltage for nanoESI-MS analysis: 0–2 V, source temperature: 40 °C; trap gas flow: 2.0 ml/min, reflectron grid 1.449 kV. Data acquisition and processing were done with the MassLynx software version 4.1 (Waters MS-Technologies, Wilmslow, UK)[31].
ITEM-FIVE experiments started with isolating the quintuply charged foldon trimer ion signal as the respective precursor ion[31]. Then the collision cell voltage difference (ΔCV) in the trap cell was increased stepwise from: 0 V, to 2 V, 5 V, 7 V, 10 V, 12 V, 15 V, 20 V, 30 V, 40 V, and 50 V. At each ΔCV setting mass spectra were accumulated for 2 min and scans were combined using the MassLynx Software version 4.1 (Waters MS Technologies, Wilmslow, UK). Two measurement series were recorded. Mass spectrometry data have been deposited at the ProteomeXchange Consortium’s PRIDE repository[62] with the dataset identifier PXD064233.
From each mass spectrum one list with mass/intensity pair data was copied into a text file and then imported into the OriginPro 2017G software (64 bit) (OriginLab Corporation, Northampton, MA, USA) where it was further processed to eliminate baseline and noise signals. Then, the processed mass list data were converted to a Microsoft Access 2010 database from which data of pre-defined target masses were extracted with a threshold of ± 0.5 Da. Target masses were selected to represent the most characteristic ion signals in the respective mass spectrum: educts were represented by the trimer’s 5 + ion signal and products by the dimer’s 3 + ion signal and the monomer’s 2 + ion signal. […] Ion signal intensities were normalized by setting the sum of all remaining target mass ion signals to 100%. […]

[1] = Travelling wave ion mobility: drift times and CCS of homo-trimer 5+ ions; type: physicochemical; conditions: TWIM, nitrogen; for TWCCSN2 exp. (mean): 5+ trimer ion; for TWCCSN2 exp. (mean) / dt (mean): 50 mM ammonium acetate pH 5.5, c = 0.1 mg/ml, mean of two independent measurements; for dt (mean): centroided 5+ trimer ion signal; for FWHM: drift time peak of 5+ trimer ion, unit assumed
Protocol: Ion mobility measurements were performed using a Synapt G2-S instrument (Waters Corporation, Wilmslow, UK) equipped with a travelling wave ion mobility (TWIM) cell. Nitrogen was the neutral buffer gas for all TWIM experiments. All mass spectra were acquired in positive ion mode applying a mass window from m/z 400 to m/z 8000. Instrument settings were as follows: capillary voltage: 1.2 kV, sample cone voltage: 13 V, source offset: 12 V, source temperature: 40 °C, trap collision energy: 2.0 V, pusher: 1900 V, puller: 1370 V, reflectron grid 1.451 kV, source gas flow: 0.0 ml/min, cone gas flow: 9 l/h, nano flow gas pressure: 0.2 bar, helium cell gas flow: 140 ml/min, IMS gas flow: 50.0 ml/min, trap collision voltage: 2 V, trap gas flow: 5.0 ml/min, IMS wave velocity 1600 m/s, wave height: 30.0 V. Data acquisition, arrival time determinations, and processing were done with the MassLynx software version 4.1 (Waters MS-Technologies, Wilmslow, UK[31]. TWIM calibration was done with bovine serum albumin, myoglobin, cytochrome c, ubiquitin, and insulin using published CCS values (Table S18)[66],[67] and applying the published algorithms for logarithmic fits[66],[68] as well as for linear fits[69].

[2] = drift gas nitrogen, in Å2, cited from earlier work
Excerpt: Supplement 41598_2025_28101_MOESM1_ESM.docx, table 25: Table S18: Drift times, experimentally determined CCS, and literature references of calibrant proteins. | column: CCS from literature ^a)

[3] = Travelling wave ion mobility CCS calibration: drift times and TWCCSN2 of calibrant protein ions; type: physicochemical; conditions: drift gas nitrogen, repeat determinations printed as separate rows; for dt exp.: in ms; for TWCCSN2: in Å2
Excerpt: Supplement 41598_2025_28101_MOESM1_ESM.docx, table 25: Table S18: Drift times, experimentally determined CCS, and literature references of calibrant proteins. | column: CCS determinations ^a); CCS from literature ^a)

[4] = Boltzmann curve parameter, 5+ trimer ion, mean of two measurement series, Table S8
[5] = collision cell voltage difference at half dissociation of 5+ trimer ion, Boltzmann fit
[6] = calibrant ion z = 5, ion at m/z 2473.12
[7] = calibrant ion z = 5, ion at m/z 2473.14

| Substance | ΔCV50 (foldon homo-trimer; [4]) | k#m0g (apparent kinetic constant of trimer dissociation) (foldon homo-trimer; 5+ trimer ion) | TambΔS#m0g (foldon homo-trimer; 5+ trimer ion) [kcal/mol] | ΔG#m0g (pseudo thermodynamic activation free energy of trimer dissociation) (foldon homo-trimer; 5+ trimer ion) [kcal/mol] | ΔH#m0g (activation enthalpy of trimer dissociation) (foldon homo-trimer; 5+ trimer ion) [kcal/mol] | TWCCSN2 exp. (mean) [1] [Å^2] | dt (mean) [1] [ms] | FWHM [1] [ms] | further results |
| --- | --- | --- | --- | --- | --- | --- | --- | --- | --- |
| H-Dip^2IPEAPRDala^10QAYVRKphe^17GEWVLLSTFL-NH2 [foldon 6, T4Ff variant without Gly1, Dip at position 2] | 13.42 | 3.47 × 10^8 | 10.1 | 5.88 | 16 | 1177 | 11.3 | 1.5 | ΔCV50 (foldon homo-trimer; [5]): 13.4 V |
| H-Gly^1Tyr^2IPEAPRDGly^10QAYVRKAsp^17GEWVLLSTFL-OH [foldon 0, original T4 Fibritin foldon mini-protein of 27 amino acids, purchased, forms homo-trimers, reference compound] | 13.51 | 3.61 × 10^8 | 9.56 | 5.71 | 15.3 | 1160 | 10.8 | 1.9 | ΔCV50 (foldon homo-trimer; [5]): 13.5 V |
| H-Gly^1Tyr^2IPEAPRDala^10QAYVRKphe^17GEWVLLSTFL-NH2 [foldon 1, T4Ff variant with D-Ala10, D-Phe17 and C-terminal carboxamide] | 11.04 | 6.61 × 10^9 | 8.44 | 3.94 | 12.4 | 1172 | 11.1 | 1.5 | ΔCV50 (foldon homo-trimer; [5]): 11.0 V |
| H-Gly^1tyr^2IPEAPRDala^10QAYVRKphe^17GEWVLLSTFL-NH2 [foldon 2] | – | 3.60 × 10^9 | 9.03 | 4.42 | 13.5 | 1169 | 11.0 | 1.5 | – |
| H-Nal^2IPEAPRDala^10QAYVRKphe^17GEWVLLSTFL-NH2 [foldon 5, T4Ff variant without Gly1, Nal at position 2] | 12.25 | 1.22 × 10^9 | 9.56 | 5.04 | 14.6 | 1169 | 11.0 | 0.8 | – |
| H-Tyr^2IPEAPRDala^10QAYVRKphe^17GEWVLLSTFL-NH2 [foldon 3] | 11.63 | 2.64 × 10^9 | 8.99 | 4.57 | 13.6 | 1164 | 10.9 | 1.2 | – |
| H-tyr^2IPEAPRDala^10QAYVRKphe^17GEWVLLSTFL-NH2 [foldon 4, T4Ff variant without Gly1, D-Tyr at position 2] | 12.26 | 1.17 × 10^9 | 9.27 | 5.07 | 14.3 | 1164 | 10.9 | 1.6 | – |
| cytochrome c | – | – | – | – | – | – | – | – | CCS from literature, CCS exp. ([2]; calibrant ion z = 5): 1146; CCS from literature, CCS exp. ([2]; calibrant ion z = 6, two literature values): 1477 and 1490; CCS from literature, CCS exp. ([2]; calibrant ion z = 7): 1590; dt exp. [3, 6]: 12.03; dt exp. [3, 7]: 11.89; TWCCSN2 [3, 6]: 1204; TWCCSN2 [3, 7]: 1199; dt exp. ([3]; calibrant ion z = 8): 10.23 and 10.37; TWCCSN2 ([3]; calibrant ion z = 8): 1827 and 1835 |
| insulin | – | – | – | – | – | – | – | – | dt exp. ([3]; calibrant ion z = 3): 12.3 and 12.44; TWCCSN2 ([3]; calibrant ion z = 3): 729 and 732; dt exp. ([3]; calibrant ion z = 4): 8.43 and 8.57; TWCCSN2 ([3]; calibrant ion z = 4): 865 and 868; dt exp. ([3]; calibrant ion z = 5): 7.19; TWCCSN2 ([3]; calibrant ion z = 5): 1038 |
| serum albumin | – | – | – | – | – | – | – | – | CCS from literature, CCS exp. ([2]; calibrant ion z = 15): 4490; CCS from literature, CCS exp. ([2]; calibrant ion z = 16): 4470; CCS from literature, CCS exp. ([2]; calibrant ion z = 17): 4490; dt exp. ([3]; calibrant ion z = 15): 18.80; TWCCSN2 ([3]; calibrant ion z = 15): 4310 |
| ubiquitin | – | – | – | – | – | – | – | – | CCS from literature, CCS exp. ([2]; calibrant ion z = 4): 949; CCS from literature, CCS exp. ([2]; calibrant ion z = 5): 1011; dt exp. ([3]; calibrant ion z = 4): 11.75; TWCCSN2 ([3]; calibrant ion z = 4): 956 |

Reference: PMC12644675, “The mass spectrometric intact transition epitope mapping method supports protein engineering of foldon trimer variants” (Scientific Reports, 2025)
